ChEMBL document CHEMBL1143901, “Lead identification of 2-iminobenzimidazole antagonists of the chemokine receptor CXCR3” (Bioorg Med Chem Lett, 2008)

Assays:
[1] = target: T1, C-X-C chemokine receptor type 3 (Homo sapiens, UniProt P49682); assay: Displacement of [125I]-CXCL10 from human CXCR3 expressed in CHO cell membrane; format: cell membranes
T1 sequence (P49682 whole entry): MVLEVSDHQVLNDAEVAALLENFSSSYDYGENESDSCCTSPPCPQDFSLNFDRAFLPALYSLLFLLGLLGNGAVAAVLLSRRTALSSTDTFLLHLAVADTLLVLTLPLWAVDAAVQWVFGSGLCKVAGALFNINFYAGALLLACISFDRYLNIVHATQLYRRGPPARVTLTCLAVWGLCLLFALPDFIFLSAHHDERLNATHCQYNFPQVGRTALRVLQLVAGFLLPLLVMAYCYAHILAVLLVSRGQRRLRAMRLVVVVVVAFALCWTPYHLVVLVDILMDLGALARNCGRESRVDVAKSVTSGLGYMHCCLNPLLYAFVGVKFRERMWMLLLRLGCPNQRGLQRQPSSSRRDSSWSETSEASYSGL

[2] = target: T1, C-X-C chemokine receptor type 3; assay: Antagonist activity at human CXCR3 expressed in CHO cell […] assessed as inhibition of calcium flux by FLIPR; format: functional, cell-based
[3] = target: T2, C-X-C chemokine receptor type 3 (Mus musculus, UniProt O88410); assay: Displacement of [125I]-CXCL10 from mouse CXCR3 expressed in CHO cell membrane; format: cell membranes
T2 sequence (O88410 whole entry): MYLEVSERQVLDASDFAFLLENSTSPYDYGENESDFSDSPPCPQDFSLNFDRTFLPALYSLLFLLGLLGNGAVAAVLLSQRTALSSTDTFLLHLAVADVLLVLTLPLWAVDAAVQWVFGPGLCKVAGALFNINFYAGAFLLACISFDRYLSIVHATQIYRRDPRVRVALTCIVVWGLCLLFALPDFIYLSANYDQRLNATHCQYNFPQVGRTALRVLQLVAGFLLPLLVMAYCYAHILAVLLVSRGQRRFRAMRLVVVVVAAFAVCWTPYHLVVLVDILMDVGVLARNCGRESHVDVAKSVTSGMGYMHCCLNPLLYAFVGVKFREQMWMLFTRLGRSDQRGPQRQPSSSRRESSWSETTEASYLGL

[4] = Metabolic stability in mouse liver microsomes assessed as half life; format: ADME, Microsome

IC50 [1]	IC50 [2]	IC50 [3]	half-life [4]	Structure (SMILES)
300 nM	70 nM	1400 nM	–	CN(CCCn1c(=N)n(CC(=O)c2ccc(Cl)cc2)c2cccc(Cl)c21)C(=O)Cc1ccccc1
30 nM	20 nM	200 nM	–	CN(CCCn1c(=N)n(CC(=O)c2ccc(Cl)cc2)c2cccc(Cl)c21)C(=O)c1ccccn1
15 nM	40 nM	500 nM	9.5 min	CN(CCCn1c(=N)n(CC(=O)c2ccc(Cl)cc2)c2cccc(Cl)c21)C(=O)c1ccc2ccccc2c1
200 nM	100 nM	1800 nM	–	CCc1cccc2c1n(CCCN(C)C(=O)Cc1ccccc1)c(=N)n2CC(=O)c1ccc(Cl)cc1
400 nM	400 nM	–	–	CN(CCCCn1c(=N)n(CC(=O)c2ccc(Cl)cc2)c2cccc(Cl)c21)C(=O)Cc1ccccc1
15 nM	20 nM	60 nM	–	N=c1n(CC(=O)c2ccc(Cl)cc2)c2cccc(Cl)c2n1C[C@@H]1CCCN(C(=O)c2cccc3cccnc23)C1
400 nM	300 nM	1500 nM	–	CN(CCn1c(=N)n(CC(=O)c2ccc(Cl)cc2)c2cccc(Cl)c21)C(=O)Cc1ccccc1
1300 nM	3400 nM	–	–	CC(=O)N(C)CCn1c(=N)n(CC(=O)c2ccc(Cl)cc2)c2ccccc21
500 nM	900 nM	–	–	CN(CCn1c(=N)n(CC(=O)c2ccc(Cl)cc2)c2ccccc21)C(=O)C1CCCCC1
1200 nM	2500 nM	–	–	CCOC(=O)CCn1c(=N)n(CC(=O)c2ccc(Cl)cc2)c2ccccc21
300 nM	2300 nM	–	–	CN(CCn1c(=N)n(CC(=O)c2ccc(Cl)cc2)c2ccccc21)C(=O)c1ccccc1
1100 nM	–	–	–	CCCn1c(=N)n(CC(=O)c2ccc(Cl)cc2)c2ccccc21
700 nM	–	–	–	Cn1c(=N)n(CC(=O)c2ccc(Cl)cc2)c2ccccc21
15 nM	20 nM	80 nM	–	N=c1n(CC(=O)c2ccc(Cl)cc2)c2cccc(Cl)c2n1CC1CCCN(C(=O)c2cccc3cccnc23)C1 (centres undefined)
50 nM	20 nM	150 nM	5.4 min	COc1ccccc1C(=O)N(C)CCCn1c(=N)n(CC(=O)c2ccc(Cl)cc2)c2cccc(Cl)c21
20 nM	10 nM	1100 nM	–	N=c1n(CC(=O)c2ccc(Cl)cc2)c2cccc(Cl)c2n1CCCN(C(=O)c1cccc2cccnc12)C1CC1
400 nM	800 nM	–	–	CN(CCn1c(=N)n(CC(=O)c2ccc(Cl)cc2)c2ccccc21)C(=O)Cc1ccccc1
8 nM	20 nM	40 nM	7.5 min	N=c1n(CC(=O)c2ccc(Cl)cc2)c2cccc(Cl)c2n1CC[C@@H]1CCCN1C(=O)c1cccc2cccnc12
16 nM	20 nM	70 nM	–	N=c1n(CC(=O)c2ccc(Cl)cc2)c2cccc(Cl)c2n1C[C@H]1CCCN(C(=O)c2cccc3cccnc23)C1
600 nM	400 nM	–	–	CN(CCCn1c(=N)n(CC(=O)c2ccc(Cl)cc2)c2cccc(Cl)c21)C(=O)C(C)(C)C
300 nM	20 nM	800 nM	–	CN(CCCn1c(=N)n(CC(=O)c2ccc(Cl)cc2)c2cccc(Cl)c21)C(=O)c1ccccc1
400 nM	200 nM	–	–	CN(Cc1ccccc1)C(=O)CCn1c(=N)n(CC(=O)c2ccc(Cl)cc2)c2ccccc21
20 nM	20 nM	50 nM	15 min	CN(CCCn1c(=N)n(CC(=O)c2ccc(Cl)cc2)c2cccc(Cl)c21)C(=O)c1cccc2cccnc12
2200 nM	–	–	–	CN(Cc1ccccc1)C(=O)Cn1c(=N)n(CC(=O)c2ccc(Cl)cc2)c2ccccc21
700 nM	3500 nM	–	–	CCn1c(=N)n(CC(=O)c2ccc(Cl)cc2)c2ccccc21
